Reference: US20260176320A1, “MODULATORS OF G-PROTEIN COUPLED RECEPTORS” (priority 2018, published 2026)
Like-named read-outs stand apart in the source and are kept apart here.

Experiments:
GLP-1R = GLP-1R (Homo sapiens, UniProt P43220); test: HitHunter cAMP assay (GLP-1R); format: cell-based; conditions: Table 3A, cAMP; for Emax: read-out: (Emax) GLP-1R
Summary of the method: (§1)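 Luminescent readout of cAMP by enzyme-fragment immunocompetition gave agonist concentration-response data. Cells (10,000/well) sat in HBSS buffer containing IBMX 625 μM, HEPES 10 mM and BSA 0.2%, exposed to agonist for 30 min at room temperature.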

GIP-R = molecular target: T1, GIP-R (Homo sapiens, UniProt P48546); test: HitHunter cAMP assay (GIP-R); format: cell-based; conditions: Table 3A, cAMP; for Emax: read-out: (Emax) GIP-R
T1 sequence (P48546 22-466): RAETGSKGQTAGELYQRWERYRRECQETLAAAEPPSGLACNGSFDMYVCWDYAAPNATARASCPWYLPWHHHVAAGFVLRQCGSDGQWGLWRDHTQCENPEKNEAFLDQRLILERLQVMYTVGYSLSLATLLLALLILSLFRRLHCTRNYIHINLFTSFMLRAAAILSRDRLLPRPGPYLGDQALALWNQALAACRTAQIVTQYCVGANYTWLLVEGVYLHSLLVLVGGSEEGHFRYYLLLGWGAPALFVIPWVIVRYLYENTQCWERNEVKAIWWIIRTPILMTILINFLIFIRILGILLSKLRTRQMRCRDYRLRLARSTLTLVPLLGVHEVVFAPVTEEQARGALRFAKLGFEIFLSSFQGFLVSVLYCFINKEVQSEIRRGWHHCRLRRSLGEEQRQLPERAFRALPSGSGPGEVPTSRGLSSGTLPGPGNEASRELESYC
Summary of the method: as §1

Chain of GLP-1R (P43220 24-463): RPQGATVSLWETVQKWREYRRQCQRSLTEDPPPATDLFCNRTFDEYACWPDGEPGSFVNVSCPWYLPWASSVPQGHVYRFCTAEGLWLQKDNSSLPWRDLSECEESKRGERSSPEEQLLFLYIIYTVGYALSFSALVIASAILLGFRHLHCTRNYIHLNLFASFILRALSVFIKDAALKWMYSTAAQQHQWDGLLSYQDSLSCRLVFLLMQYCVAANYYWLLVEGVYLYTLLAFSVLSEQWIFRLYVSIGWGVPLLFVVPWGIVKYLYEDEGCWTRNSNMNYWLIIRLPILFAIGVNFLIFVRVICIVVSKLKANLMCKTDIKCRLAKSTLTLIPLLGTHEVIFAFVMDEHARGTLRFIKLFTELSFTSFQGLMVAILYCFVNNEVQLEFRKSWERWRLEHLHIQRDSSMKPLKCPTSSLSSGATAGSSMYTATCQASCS

SMILES	EC50 (GLP-1R; EC50 GLP-1R/nM) [nM]	Emax (GLP-1R) [%]	EC50 (GIP-R; EC50 GIP-R/nM) [nM]	Emax (GIP-R) [%]	EC50 (GLP-1R; read-out: EC50 GLP-1R/nM) [nM]	EC50 (GIP-R; read-out: EC50 GIP-R/nM) [nM]
CCCCCCCCCCCCCCCC(=O)N[C@@H](CCC(=O)NCCCC[C@H](NC(=O)[C@H](CO)NC(=O)[C@@H]1CCCN1C(=O)[C@@H]1CCCN1C(=O)[C@@H]1CCCN1C(=O)[C@H](C)NC(=O)CNC(=O)[C@H](CO)NC(=O)[C@H](CO)NC(=O)[C@@H]1CCCN1C(=O)CNC(=O)CNC(=O)[C@H](C)NC(=O)[C@H](CC(C)C)NC(=O)[C@H](CC(C)C)NC(=O)[C@H](Cc1c[nH]c2ccccc12)NC(=O)[C@H](CC(N)=O)NC(=O)[C@@H](NC(=O)[C@H](Cc1ccccc1)NC(=O)[C@H](CCC(=O)O)NC(=O)C(C)(C)NC(=O)[C@H](C)NC(=O)[C@H](C)NC(=O)[C@H](CCC(N)=O)NC(=O)[C@H](CCCCN)NC(=O)[C@H](CC(=O)O)NC(=O)[C@H](CC(C)C)NC(=O)[C@H](Cc1ccc(O)cc1)NC(=O)[C@@H](NC(=O)[C@H](CO)NC(=O)[C@H](Cc1ccc(O)cc1)NC(=O)[C@H](CC(=O)O)NC(=O)[C@H](CO)NC(=O)[C@@H](NC(=O)[C@H](Cc1ccccc1)NC(=O)[C@@H](NC(=O)CNC(=O)[C@H](CCC(=O)O)NC(=O)CSCC(=O)NCCN1C(=O)c2ccc(C)cc2C1=O)[C@@H](C)O)[C@@H](C)O)[C@@H](C)CC)C(C)C)C(N)=O)C(=O)O [Compound 247]	0.1 to 1	102	< 0.1	110		
CCCCCCCCCCCCCCCC(=O)N[C@@H](CCC(=O)NCCCC[C@H](NC(=O)[C@H](CO)NC(=O)[C@@H]1CCCN1C(=O)[C@@H]1CCCN1C(=O)[C@@H]1CCCN1C(=O)[C@H](C)NC(=O)CNC(=O)[C@H](CO)NC(=O)[C@H](CO)NC(=O)[C@@H]1CCCN1C(=O)CNC(=O)CNC(=O)[C@H](C)NC(=O)[C@H](CC(C)C)NC(=O)[C@H](CC(C)C)NC(=O)[C@H](Cc1c[nH]c2ccccc12)NC(=O)[C@H](CC(N)=O)NC(=O)[C@@H](NC(=O)[C@H](Cc1ccccc1)NC(=O)[C@H](CCC(=O)O)NC(=O)C(C)(C)NC(=O)[C@H](C)NC(=O)[C@H](C)NC(=O)[C@H](CCC(N)=O)NC(=O)[C@H](CCCCN)NC(=O)[C@H](CC(=O)O)NC(=O)[C@H](CC(C)C)NC(=O)[C@H](Cc1ccc(O)cc1)NC(=O)[C@@H](NC(=O)[C@H](CO)NC(=O)[C@H](Cc1ccc(O)cc1)NC(=O)[C@H](CC(=O)O)NC(=O)[C@H](CO)NC(=O)[C@@H](NC(=O)[C@H](Cc1ccccc1)NC(=O)[C@@H](NC(=O)CNC(=O)[C@H](CCC(=O)O)NC(=O)CSCC(=O)NCCN1C(=O)c2cccc3cccc(c23)C1=O)[C@@H](C)O)[C@@H](C)O)[C@@H](C)CC)C(C)C)C(N)=O)C(=O)O [Compound 248]		80		105	10 to 100	1 to 10
CCCCCCCCCCCCCCCC(=O)N[C@@H](CCC(=O)NCCCC[C@H](NC(=O)[C@H](CO)NC(=O)[C@@H]1CCCN1C(=O)[C@@H]1CCCN1C(=O)[C@@H]1CCCN1C(=O)[C@H](C)NC(=O)CNC(=O)[C@H](CO)NC(=O)[C@H](CO)NC(=O)[C@@H]1CCCN1C(=O)CNC(=O)CNC(=O)[C@H](C)NC(=O)[C@H](CC(C)C)NC(=O)[C@H](CC(C)C)NC(=O)[C@H](Cc1c[nH]c2ccccc12)NC(=O)[C@H](CC(N)=O)NC(=O)[C@@H](NC(=O)[C@H](Cc1ccccc1)NC(=O)[C@H](CCC(=O)O)NC(=O)C(C)(C)NC(=O)[C@H](C)NC(=O)[C@H](C)NC(=O)[C@H](CCC(N)=O)NC(=O)[C@H](CCCCN)NC(=O)[C@H](CC(=O)O)NC(=O)[C@H](CC(C)C)NC(=O)[C@H](Cc1ccc(O)cc1)NC(=O)[C@@H](NC(=O)[C@H](CO)NC(=O)[C@H](Cc1ccc(O)cc1)NC(=O)[C@H](CC(=O)O)NC(=O)[C@H](CO)NC(=O)[C@@H](NC(=O)[C@H](Cc1ccccc1)NC(=O)[C@@H](NC(=O)CNC(=O)[C@H](CCC(=O)O)NC(=O)CSCC(=O)NCCN1C(=O)c2cc3ccccc3cc2C1=O)[C@@H](C)O)[C@@H](C)O)[C@@H](C)CC)C(C)C)C(N)=O)C(=O)O [Compound 249]	10 to 100	101	1 to 10	105		
CCCCCCCCCCCCCCCC(=O)N[C@@H](CCC(=O)NCCCC[C@H](NC(=O)[C@H](CO)NC(=O)[C@@H]1CCCN1C(=O)[C@@H]1CCCN1C(=O)[C@@H]1CCCN1C(=O)[C@H](C)NC(=O)CNC(=O)[C@H](CO)NC(=O)[C@H](CO)NC(=O)[C@@H]1CCCN1C(=O)CNC(=O)CNC(=O)[C@H](C)NC(=O)[C@H](CC(C)C)NC(=O)[C@H](CC(C)C)NC(=O)[C@H](Cc1c[nH]c2ccccc12)NC(=O)[C@H](CC(N)=O)NC(=O)[C@@H](NC(=O)[C@H](Cc1ccccc1)NC(=O)[C@H](CCC(=O)O)NC(=O)C(C)(C)NC(=O)[C@H](C)NC(=O)[C@H](C)NC(=O)[C@H](CCC(N)=O)NC(=O)[C@H](CCCCN)NC(=O)[C@H](CC(=O)O)NC(=O)[C@H](CC(C)C)NC(=O)[C@H](Cc1ccc(O)cc1)NC(=O)[C@@H](NC(=O)[C@H](CO)NC(=O)[C@H](Cc1ccc(O)cc1)NC(=O)[C@H](CC(=O)O)NC(=O)[C@H](CO)NC(=O)[C@@H](NC(=O)[C@H](Cc1ccccc1)NC(=O)[C@@H](NC(=O)CNC(=O)[C@H](CCC(=O)O)NC(=O)C(C)(C)C(=O)NCCn1ccccc1=O)[C@@H](C)O)[C@@H](C)O)[C@@H](C)CC)C(C)C)C(N)=O)C(=O)O [Compound 254]				80	< 0.1	1 to 10
CCCCCCCCCCCCCCCC(=O)N[C@@H](CCC(=O)NCCCC[C@H](NC(=O)[C@H](CO)NC(=O)[C@@H]1CCCN1C(=O)[C@@H]1CCCN1C(=O)[C@@H]1CCCN1C(=O)[C@H](C)NC(=O)CNC(=O)[C@H](CO)NC(=O)[C@H](CO)NC(=O)[C@@H]1CCCN1C(=O)CNC(=O)CNC(=O)[C@H](C)NC(=O)[C@H](CC(C)C)NC(=O)[C@H](CC(C)C)NC(=O)[C@H](Cc1c[nH]c2ccccc12)NC(=O)[C@H](CC(N)=O)NC(=O)[C@@H](NC(=O)[C@H](Cc1ccccc1)NC(=O)[C@H](CCC(=O)O)NC(=O)C(C)(C)NC(=O)[C@H](C)NC(=O)[C@H](C)NC(=O)[C@H](CCC(N)=O)NC(=O)[C@H](CCCCN)NC(=O)[C@H](CC(=O)O)NC(=O)[C@H](CC(C)C)NC(=O)[C@H](Cc1ccc(O)cc1)NC(=O)[C@@H](NC(=O)[C@H](CO)NC(=O)[C@H](Cc1ccc(O)cc1)NC(=O)[C@H](CC(=O)O)NC(=O)[C@H](CO)NC(=O)[C@@H](NC(=O)[C@H](Cc1ccccc1)NC(=O)[C@@H](NC(=O)CNC(=O)[C@H](CCC(=O)O)NC(=O)C(C)(C)C(=O)NCCN1CCOCC1=O)[C@@H](C)O)[C@@H](C)O)[C@@H](C)CC)C(C)C)C(N)=O)C(=O)O [Compound 257]				40	< 0.1	10 to 100
CCCCCCCCCCCCCCCC(=O)N[C@@H](CCC(=O)NCCCC[C@H](NC(=O)[C@H](CO)NC(=O)[C@@H]1CCCN1C(=O)[C@@H]1CCCN1C(=O)[C@@H]1CCCN1C(=O)[C@H](C)NC(=O)CNC(=O)[C@H](CO)NC(=O)[C@H](CO)NC(=O)[C@@H]1CCCN1C(=O)CNC(=O)CNC(=O)[C@H](C)NC(=O)[C@H](CC(C)C)NC(=O)[C@H](CC(C)C)NC(=O)[C@H](Cc1c[nH]c2ccccc12)NC(=O)[C@H](CC(N)=O)NC(=O)[C@@H](NC(=O)[C@H](Cc1ccccc1)NC(=O)[C@H](CCC(=O)O)NC(=O)C(C)(C)NC(=O)[C@H](C)NC(=O)[C@H](C)NC(=O)[C@H](CCC(N)=O)NC(=O)[C@H](CCCCN)NC(=O)[C@H](CC(=O)O)NC(=O)[C@H](CC(C)C)NC(=O)[C@H](Cc1ccc(O)cc1)NC(=O)[C@@H](NC(=O)[C@H](CO)NC(=O)[C@H](Cc1ccc(O)cc1)NC(=O)[C@H](CC(=O)O)NC(=O)[C@H](CO)NC(=O)[C@@H](NC(=O)[C@H](Cc1ccccc1)NC(=O)[C@@H](NC(=O)CNC(=O)[C@H](CCC(=O)O)NC(=O)CCNC(=O)CCN1CCCCCC1=O)[C@@H](C)O)[C@@H](C)O)[C@@H](C)CC)C(C)C)C(N)=O)C(=O)O [Compound 267]		100		40		10 to 100
CCCCCCCCCCCCCCCC(=O)N[C@@H](CCC(=O)NCCCC[C@H](NC(=O)[C@H](CO)NC(=O)[C@@H]1CCCN1C(=O)[C@@H]1CCCN1C(=O)[C@@H]1CCCN1C(=O)[C@H](C)NC(=O)CNC(=O)[C@H](CO)NC(=O)[C@H](CO)NC(=O)[C@@H]1CCCN1C(=O)CNC(=O)CNC(=O)[C@H](C)NC(=O)[C@H](CC(C)C)NC(=O)[C@H](CC(C)C)NC(=O)[C@H](Cc1c[nH]c2ccccc12)NC(=O)[C@H](CC(N)=O)NC(=O)[C@@H](NC(=O)[C@H](Cc1ccccc1)NC(=O)[C@H](CCC(=O)O)NC(=O)C(C)(C)NC(=O)[C@H](C)NC(=O)[C@H](C)NC(=O)[C@H](CCC(N)=O)NC(=O)[C@H](CCCCN)NC(=O)[C@H](CC(=O)O)NC(=O)[C@H](CC(C)C)NC(=O)[C@H](Cc1ccc(O)cc1)NC(=O)[C@@H](NC(=O)[C@H](CO)NC(=O)[C@H](Cc1ccc(O)cc1)NC(=O)[C@H](CC(=O)O)NC(=O)[C@H](CO)NC(=O)[C@@H](NC(=O)[C@H](Cc1ccccc1)NC(=O)[C@@H](NC(=O)CNC(=O)[C@H](CCC(=O)O)NC(=O)CSCC(=O)NCCN1Cc2ccccc2CC1=O)[C@@H](C)O)[C@@H](C)O)[C@@H](C)CC)C(C)C)C(N)=O)C(=O)O [Compound 270]	1 to 10	90	1 to 10	90		
